The compounds below were run against T1, GLUT1 (Homo sapiens, UniProt P11166) (assay: Indirect measurement of GLUT1 activity by quantification of intracellular ATP levels (glucose induced ATP increase)). Settings: DLD1 cells; 0.1 mM glucose, 1 μM Rotenone, 15 min; CellTiter-Glo ATP readout; IC50 values standardized to cytochalasin B IC50 values; read-out: IC50 regarding glucose induced ATP increase (GLUT1 inhibition).
T1 sequence (P11166 1-492): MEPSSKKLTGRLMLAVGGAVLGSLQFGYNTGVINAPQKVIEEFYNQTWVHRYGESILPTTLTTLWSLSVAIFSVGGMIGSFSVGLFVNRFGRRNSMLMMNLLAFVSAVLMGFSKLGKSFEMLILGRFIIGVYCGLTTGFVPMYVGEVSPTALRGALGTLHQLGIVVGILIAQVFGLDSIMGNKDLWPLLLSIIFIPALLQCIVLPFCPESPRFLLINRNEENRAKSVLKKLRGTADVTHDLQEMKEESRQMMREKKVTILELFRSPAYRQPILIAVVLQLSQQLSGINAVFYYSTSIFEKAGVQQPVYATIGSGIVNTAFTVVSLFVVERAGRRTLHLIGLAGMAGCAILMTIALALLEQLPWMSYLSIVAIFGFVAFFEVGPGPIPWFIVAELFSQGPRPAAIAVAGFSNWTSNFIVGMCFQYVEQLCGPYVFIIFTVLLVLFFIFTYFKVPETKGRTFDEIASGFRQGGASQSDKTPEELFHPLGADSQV
Assay type: cell-based
Set-up: endogenous in cells; host or cells: DLD1 or CHO-K1
Text: Indirect Measurement of GLUT1 and GLUT2 Activity by Quantification of Intracellular ATP Levels
It is well known that a combination of small-molecule inhibitors of mitochondrial electron transport chain and glucose catabolism synergistically suppress ATP production and impair cellular viability (Ulanovskaya et al., 2008, 2011; Liu, et al. 2001). We therefore used DLD1 or CHO-K1 cells in combination with an oxidative phosphorylation inhibitor to identify GLUT1 and GLUT2 inhibitors. Cell lines were maintained in DMEM medium supplemented with 10% FCS and 1% Penicillin-Streptomycin solution and 2% Glutamax. The cells were treated with trypsin and seeded into 384 plates at a density of 4000 cells/well. The cells were then cultured overnight in glucose free media containing 1% FCS to reduce intracellular ATP levels. […] The CellTiter-Glo® Luminescent Cell Viability Assay from Promega was then used to measure ATP Levels.

| Compound | IC50 [nM] |
| --- | --- |
| Cc1c(NC(=O)c2cc(C(N)=O)nc3cc(F)ccc23)c(C(F)(F)F)nn1Cc1ccc(C#N)nc1 [Example 290, N^4-{1-[(6-cyanopyridin-3-yl)methyl]-5-methyl-3-(trifluoromethyl)-1H-pyrazol-4-yl}-7-fluoroquinoline-2,4-dicarboxamide] | 31.7 |
| Cc1c(NC(=O)c2cc(C(N)=O)nc3cc(F)ccc23)c(C(F)(F)F)nn1Cc1ccccc1OC(F)(F)F [Example 1703] | 387 |

Same assay, conditions: read-out: IC50 regarding glucose induced ATP increase (GLUT1 inhibition)

| Compound | IC50 [nM] |
| --- | --- |
| COc1ccc(Cn2nc(C(F)(F)F)c(NC(=O)c3cc(C(N)=O)nc4cc(F)c(Cl)cc34)c2C)cn1 [Example 281, 6-chloro-7-fluoro-N^4-{1-[(6-methoxypyridin-3-yl)methyl]-5-methyl-3-(trifluoromethyl)-1H-pyrazol-4-yl}quinoline-2,4-dicarboxamide] | 1.3 |
| Cc1ccc2nc(C)cc(C(=O)Nc3c(C)nn(Cc4c(F)cccc4F)c3C)c2c1 [Example 84, N-[1-(2,6-difluorobenzyl)-3,5-dimethyl-1H-pyrazol-4-yl]-2,6-dimethylquinoline-4-carboxamide] | 255 |
| COc1cc(C(=O)Nc2c(C(F)(F)F)nn(Cc3ccc(C#N)cn3)c2C)c2ccccc2n1 [Example 365, N-{1-[(5-cyanopyridin-2-yl)methyl]-5-methyl-3-(trifluoromethyl)-1H-pyrazol-4-yl}-2-methoxyquinoline-4-carboxamide] | 26.6 |
| COc1ccc(CCCn2nc(C)c(NC(=O)c3cc(OC)nc4ccccc34)c2C)cc1 [Example 1109] | 54.2 |
| Cc1c(NC(=O)c2cc(C(N)=O)nc3cc(F)c(Cl)cc23)c(C(F)(F)F)nn1Cc1ccc(F)cc1F [Example 1441] | 6.5 |
| CCc1cc(Cn2nc(C(F)(F)F)c(NC(=O)c3cc(C(N)=O)nc4cc(F)ccc34)c2C)on1 [Example 1556] | 41.7 |
| Cc1c(NC(=O)c2cc(C(N)=O)nc3cccc(F)c23)c(C(F)(F)F)nn1Cc1cccc(C#N)c1 [Example 1581] | 26.9 |
| COc1ccc(Cn2nc(C)c(NC(=O)c3cc(C(N)=O)nc4cc(F)c(F)cc34)c2C)cc1 [Example 226, 6,7-difluoro-N^4-[1-(4-methoxybenzyl)-3,5-dimethyl-1H-pyrazol-4-yl]quinoline-2,4-dicarboxamide] | 4 |
| Cc1c(NC(=O)c2cc(C(N)=O)nc3cc(F)c(Cl)cc23)c(C(F)(F)F)nn1Cc1cc(C(C)C)no1 [Example 1554] | 116 |
| Cc1c(NC(=O)c2cc(C(N)=O)nc3ccccc23)c(C(F)(F)F)nn1Cc1ccc(C(C)(C)C#N)cc1 [Example 1667] | 46.6 |
| Cc1ccc2nc(C)cc(C(=O)Nc3c(C)nn(CC4CCCCC4)c3C)c2c1 [Example 206, N-[1-(cyclohexylmethyl)-3,5-dimethyl-1H-pyrazol-4-yl]-2,6-dimethylquinoline-4-carboxamide] | 667 |
| Cc1ccc2nc(C(N)=O)cc(C(=O)Nc3c(C)nn(Cc4ccc(F)cc4)c3C)c2c1 [Example 1377] | 1.7 |
| CNC(=O)c1ccc(Cn2nc(C)c(NC(=O)c3cc(C(F)(F)F)nc4ccc(Br)cc34)c2C)nc1 [Example 1070] | 20.2 |
| Cc1nn(Cc2ccc(C(=O)NCCCN3CCOCC3)cc2)c(C)c1NC(=O)c1cc(C(F)(F)F)nc2ccc(Br)cc12 [Example 1133] | 90.1 |
| COc1ccc(Cn2nc(C(F)(F)F)c(NC(=O)c3cc(OC)nc4ccccc34)c2C)cc1 [Example 1089] | 35.5 |
| Cc1nn(Cc2ccc(F)cc2)c(C(=O)N(C)C)c1NC(=O)c1cc(C(N)=O)nc2ccccc12 [Example 1250] | 1670 |
| Cc1ccc2nc(C)cc(C(=O)Nc3c(C)nn(Cc4ccc(C#N)c(F)c4)c3C)c2c1 [Example 1127] | 83.3 |
| Cc1nn(CC2CCN(C(=O)OC(C)(C)C)CC2)c(C)c1NC(=O)c1cc(C(N)=O)nc2ccccc12 [Example 1184] | 242 |
| Cc1nn(Cc2ccncn2)c(C)c1NC(=O)c1cc(C(N)=O)nc2ccccc12 [Example 1417] | 164 |
| Cc1nn(Cc2ccc(F)cc2F)c(C)c1NC(=O)c1cc(C(F)(F)F)nc2ccc(Br)cc12 [Example 41, 6-bromo-N-[1-(2,4-difluorobenzyl)-3,5-dimethyl-1H-pyrazol-4-yl]-2-(trifluoromethyl)quinoline-4-carboxamide] | 30 |

| Compound | IC50 [nM] |
| --- | --- |
| COc1cccc(Cn2nc(C(F)(F)F)c(NC(=O)c3cc(C(N)=O)nc4ccccc34)c2C)c1 [Example 1448] | 6.9 |
| Cc1cc(C(=O)Nc2c(C)nn(Cc3ccc(F)cc3)c2C)c2cccc(C#N)c2n1 [Example 1308] | 16900 |
| CCc1c(NC(=O)c2cc(C(N)=O)nc3cc(F)c(Cl)cc23)c(C(F)(F)F)nn1Cc1ccc(C#N)cc1 [Example 314, 6-chloro-N^4-[1-(4-cyanobenzyl)-5-ethyl-3-(trifluoromethyl)-1H-pyrazol-4-yl]-7-fluoroquinoline-2,4-dicarboxamide] | 1.6 |
| Cc1c(NC(=O)c2cc(C(N)=O)nc3cc(F)ccc23)c(C(F)(F)F)nn1Cc1ccc(C(F)(F)F)cc1 [Example 1590] | 9.8 |
| Cc1ccc2nc(C)cc(C(=O)Nc3c(C)nn(Cc4ccc(C(=O)NCCO)cc4)c3C)c2c1 [Example 202, N-(1-{4-[(2-hydroxyethyl)carbamoyl]benzyl}-3,5-dimethyl-1H-pyrazol-4-yl)-2,6-dimethylquinoline-4-carboxamide] | 562 |
| COc1ccc(Cn2nc(C)c(NC(=O)c3cc(C(F)(F)F)nc4ccc(Br)cc34)c2C)cn1 [Example 1025] | 2.8 |
| COCc1ccc(Cn2nc(C)c(NC(=O)c3cc(C(N)=O)nc4cc(F)ccc34)c2C)cc1 [Example 1582] | 3.9 |
| Cc1nn(Cc2ccccc2C#N)c(C)c1NC(=O)c1cc(C(N)=O)nc2cc(F)ccc12 [Example 266, N^4-[1-(2-cyanobenzyl)-3,5-dimethyl-1H-pyrazol-4-yl]-7-fluoroquinoline-2,4-dicarboxamide] | 1 |
| Cc1c(NC(=O)c2cc(C(N)=O)nc3cccc(F)c23)c(C(F)(F)F)nn1Cc1ccc(C(F)(F)F)cc1 [Example 1591] | 16.6 |
| Cc1c(NC(=O)c2cc(C(N)=O)nc3cc(F)c(Cl)cc23)c(C(F)(F)F)nn1Cc1ccc(C#N)s1 [Example 421, 6-chloro-N^4-{1-[(5-cyano-2-thienyl)methyl]-5-methyl-3-(trifluoromethyl)-1H-pyrazol-4-yl}-7-fluoroquinoline-2,4-dicarboxamide] | 2.9 |
| Cc1cc2c(C(=O)Nc3c(C(F)(F)F)nn(Cc4ccc(C#N)cc4)c3C)cc(C(N)=O)nc2cc1F [Example 343, N^4-[1-(4-cyanobenzyl)-5-methyl-3-(trifluoromethyl)-1H-pyrazol-4-yl]-7-fluoro-6-methylquinoline-2,4-dicarboxamide] | 0.7 |
| COc1cc(C(=O)Nc2c(C)nn(Cc3cccc(F)c3)c2C)c2ccccc2n1 [Example 87, N-[1-(3-fluorobenzyl)-3,5-dimethyl-1H-pyrazol-4-yl]-2-methoxyquinoline-4-carboxamide] | 267 |
| CCOC(=O)N=S(C)(=O)c1ccc(Cn2nc(C)c(NC(=O)c3cc(C(N)=O)nc4ccccc34)c2C)cc1 (racemic) [Example 376, (±)-ethyl [{4-[(4-{[(2-carbamoylquinolin-4-yl)carbonyl]amino}-3,5-dimethyl-1H-pyrazol-1-yl)methyl]phenyl}(methyl)oxido-λ^6-sulfanylidene]carbamate] | 642 |
| Cc1nn(Cc2ccc(C(=O)NCCCc3ccccc3)cc2)c(C)c1NC(=O)c1cc(C(F)(F)F)nc2ccc(Br)cc12 [Example 1178] | 224 |
| Cc1c(NC(=O)c2cc(C(F)(F)F)nc3ccc(Br)cc23)c(C(=O)N(C)C)nn1Cc1ccc(F)cc1 [Example 1259] | 2100 |
| Cc1nn(Cc2ccccc2C(F)(F)F)c(C)c1NC(=O)c1cc(C(F)(F)F)nc2c(Cl)cc(Cl)cc12 [Example 1299] | 11100 |
| CSc1cc(C(=O)Nc2c(C)nn(Cc3ccc(C#N)cc3)c2C)c2ccccc2n1 [Example 381, N-[1-(4-cyanobenzyl)-3,5-dimethyl-1H-pyrazol-4-yl]-2-(methylsulfanyl)quinoline-4-carboxamide] | 9 |
| Cc1cc(C(=O)Nc2c(C)nn(Cc3ccc(F)cc3)c2C)c2cc(Br)ccc2n1 [Example 43, 6-bromo-N-[1-(4-fluorobenzyl)-3,5-dimethyl-1H-pyrazol-4-yl]-2-methylquinoline-4-carboxamide] | 31.7 |
| Cc1nn(Cc2ncccc2C#N)c(C)c1NC(=O)c1cc(C(N)=O)nc2ccc(Br)cc12 [Example 1408] | 4.9 |
| Cc1nn(CC2COc3ccccc3O2)c(C)c1NC(=O)c1cc(C(F)(F)F)nc2ccc(Br)cc12 (stereo not drawn) [Example 1208] | 481 |
